“Also recorded” adds a separate entry of the source.
Columns and labels:
C. elegans = conditions: shown previously; cited from earlier work
C. elegans males = assay: Attraction assay (long-range, point source); format: in vivo; conditions: point source on 10 cm plate
Description: 10 cm standard chemotaxis plates were prepared (Bargmann et al., Cell 74:515-27 (1993), which is hereby incorporated by reference in its entirety) and stored at 4° C. until the day before use. Standard 1 cm-diameter copper pipes were sectioned into 1 cm-tall segments to use for the holding chambers. The females/hermaphrodites were isolated overnight, washed 3 times in M9 buffer, and then allowed to wander on a plate pre-conditioned with 50 uL of 1000× streptomycin for 2 hours to kill any bacteria that might produce a false positive attractant. The nematodes were then washed 3 times, and the supernatant from the last wash was placed in a copper chamber, as the control, 1 cm from the border of the 10 cm plate. The nematodes were suspended in M9 within the copper chamber, 1 cm from the border opposite the control chamber. After 6 hours, they were subsequently removed and replaced with 3 μL of 1M sodium azide. 100 C. elegans adult males were isolated overnight, washed several times in ddH2O, and placed at the center of the agar plate. After several hours, males paralyzed within 2 cm of each region were scored. The Chemotaxis Index (Bargmann et al., Cell 74:515-27 (1993), which is hereby incorporated by reference in its entirety) was then used to score male chemotaxis to either point source.

C. elegans dauer larvae = assay: Dispersal assay, C. elegans dauer; format: in vivo; conditions: for dauer larvae that moved away from the release location, normalized to the percent of the positive control response: physiological concentration, with 0.25% E. coli (HB101), food only control approximately 35%; for substitution for ascr#2 in the C. elegans dispersal blend: in vivo
Description: C. elegans dauer juveniles were washed with MILLI-Q water 3 times, placed into 6 cm petri dishes with a small amount of water, and rested overnight. Approximately 200-300 nematodes in 10 μl of water were placed on an agar plate, to which 2 μl of treatment was added. The liquid culture that produced 60% dauer animals was centrifuged, filtered with a 0.45 μm filter, and used as a positive control for dispersal. Thereafter, media were lyophilized and resuspended in MILLI-Q water 5 times. 2 μl to 10 μl of nematode suspension was used for the assay. As a negative control, 0.5% E. coli (HB101) was prepared in S-complete, lyophilized, and adjusted to the final volume of 0.25% E. coli in the assay.
Nematodes were quantified using Image J software (Image Processing and Analysis in Java, National Institutes of Health). The number of nematodes visualized and counted using Image J is illustrated in FIG. 63B. Nematodes inside the circle were subtracted manually from the total number of worms counted because of the location of their placement. Each treatment was replicated 9-11 times. The graph was normalized to the positive control, the dauer conditioned medium.

[1] = test system: C. elegans hermaphrodites and males; conditions: from 1 μM concentration; previous study (Srinivasan 2008); cited from earlier work
[2] = test system: several of the tested nematode species; assay: Retention assay, several nematode species; format: in vivo; conditions: 1 nM, 1 μM and 1 mM tested
Description: OP50 E. coli was grown on a standard 5 cm agar plate (made with standard Nematode Growth Medium). The bacterial lawn was 16 mm in diameter and was grown overnight at 20° C. before being used in trials. Two 4 mm spots (0.6 μL) were placed on opposite sides of the bacterial lawn (using a transparent template to guide spot placement), and several minutes elapsed for the liquid to settle in before placing nematodes down on the assay. Recording began immediately upon worm placement. 0.6 μL of the control was placed on one side of the lawn, and 0.6 μL of the experimental cue was placed on the other side of the lawn, changing the location of the cue throughout trials between left/right and top/bottom to avoid bias.
Nematodes were isolated by gender at the L4 stage the day before being used in trials as developed adults. Worms were evenly divided and placed at two points equidistant from the foci of the scoring region. Trials were recorded for 20 minutes, and frames were collected for analysis at 1 frame per second. Results were averaged from at least three different trials. For every nematode species in this study, a different total number of worms (using water in both scoring regions) was tested to determine the minimum number of worms necessary for consistent unbiased results over a 20 minute trial. The total number of worms used in the multiple species assays depended on that species' optimal parameters. 10 worms were used for P. redivivus males and females, 20 worms were used for C. elegans males and O. dolichuridae males, and 14 worms were used for S. glaseri males. The Automated Software was used to compare worm occupancy in each scoring region over time, and the Chemotaxis Index (Bargmann et al., Cell 74:515-27 (1993), which is hereby incorporated by reference in its entirety) was adapted to score preference or avoidance to each ascaroside.
A video camera attached to the microscope produced a digital video stream, which was then analyzed. The ratio of the time the average worm spent in each region of interest was calculated for every trial. For ease of implementation, all worms in a single experiment were assumed to be roughly the same size. Thus worm pixels were counted instead of whole worms, allowing fractions of a worm in the region of interest to be taken into account. It also eliminated the need for a shape-based worm identification algorithm, and allowed each frame to be analyzed independently. A band-pass filter was applied to each frame to eliminate the effect of uneven lighting and also accentuate the worms against the background. The worm was then identified after thresholding the filtered image. Throughout each experiment, the locations and sizes of the regions of interest were known. Through the filtering described above, it is known which pixels are occupied by worms and which ones are not. Thus, the ratio of worm-pixels to all pixels inside the region of interest can be calculated to produce the worm-occupancy ratio. This calculation was done for every frame, giving a plot output of worm-occupancy ratio vs. time for each region.

[3] = test system: P. pacificus strain RSB020; assay: Mouth-form dimorphism assay; format: in vivo, Pristionchus pacificus; conditions: synthetic samples; first assayed at 1 μM
Description: Mouth-form dimorphism assays were performed using P. pacificus strain RSB020. The synthetic compounds dissolved in ethanol (0.5 mM) were diluted with water to make 100 μl solution and subsequently added to 3 mL NGM-agar (1 μM final concentration). The assay plates were seeded with 50 μl OP50 culture in LB medium and incubated overnight at 20° C. to allow bacterial growth. Each replicate included the progeny of two mothers, which were picked as adult hermaphrodites of a consistent age (carrying 4-6 eggs) and which were all from the same P. pacificus culture plate. Following the placement of mothers on assay plates, plates were kept at 20° C. for six days, such that the entire broods were adults at the time of screening. A random sample of 50 hermaphrodite progeny was screened per plate. All animals were screened by differential interference contrast (DIC) microscopy on a Zeiss Axiskop. The following discrete characters were used to discriminate eurystomatous from stenostomatous individuals, respectively: (1) claw-shaped vs. flint-shaped (i.e. dorsoventrally symmetrical) dorsal tooth; (2) presence vs. absence of a subventral tooth; (3) strongly vs. weakly sclerotized stomatal walls. No intermediate mouth-forms were observed. Experiments were conducted in triplicate for each treatment. In assays of responses to compounds of several concentrations (1, 0.3, 0.1, 0.03, 0.01 μM final concentrations), experiments were performed as described above, with the following modifications. To allow greater resolution of responses to lower concentrations, 60 randomly screened individuals in each of five replicates per concentration per compound were assayed. All concentration-curve experiments were performed in parallel using mothers picked randomly from the same two source populations. To prepare large numbers of individual mothers for these experiments, source populations were established from virgin hermaphrodites to constrain the presence of males and were conditioned to well-fed and ambient conditions for at least one generation before mothers were picked for the assays.

S. feltiae IJs = assay: Dispersal assay, S. feltiae infective juveniles; format: in vivo; conditions: for dispersal activity in combination with natural fractions B and C: ascr#9 40 pmol/μl, ascr#11 1.3 pmol/μl; for dispersal activity when tested alone: physiologically relevant concentrations
Description: S. feltiae IJs were washed with MILLI-Q water three times and incubated in 6 cm petri dishes for […] with a small amount (4-5 ml) of MILLI-Q water. Nematodes were placed the following day on a 10.7 g/L agar with 1010 g/cm^2 gel strength (PhytoTechnology Lab. Shawnee Mission, Kans.). Nematode behavior was assayed on multiple plates with internal plate replicates to rule out the possibility that behavior was affected by plate composition. Approximately 300 IJs in 10 μl water were placed on an agar medium and the test compounds or extracts (1-2 μl) were placed into the nematode suspension. Upon absorption (˜15 minutes) of the liquid, the freely moving nematodes were video recorded for 5-10 minutes. Dispersal behavior is temperature and season dependent. During winter, the assay is effective at room temperature (22±1° C.). During summer, the assay requires a temperature controlled environment due to the effects on nematode behavior above 23° C.
Activity-guided fractionation was conducted as reported in Srinivasan et al., Nature 454:1115-18 (2008), which is hereby incorporated by reference in its entirety, with modifications. A total of 33 insect host cadavers (G. mellonella larvae) were placed into 70% EtOH and stored at −20° C. until extraction. The insect cadavers were homogenized using 1 g of ceramic zirconium beads (1.25 mm) (ZIRMIL) in 2 ml tubes for 37 seconds using a Precellys24 homogenizer. Samples were centrifuged for 15 minutes at 18400 relative centrifugal force (rcf), and the supernatant was lyophilized and resuspended in MILLI-Q water. The dispersal activity of nematodes was tested using the dispersal assay described in Example 60 and a physiologically relevant concentration of insect host cadaver extract or fractionated extract. To facilitate calculations for physiologically relevant concentration of the ascarosides, wax worm volume was estimated at ˜200 μl; the average weight of wax worms was 232+57 mg (n=19).
The first reverse-phase solid-phase extraction was performed using Sep-Pak Plus C18 cartridges (Waters corporation, Milford, Mass.). The initially collected flow through was termed Fraction A. Thereafter, the column was washed with water, collected, and saved. Subsequently, the column was eluted with 50% (Fraction B) and 90% (Fraction C) MeOH. The fractions were tested for dispersal activity both individually and in combination. Also, individual fractions were analyzed by LC-MS. Fraction A contained ascr#9, which was collected by LC-MS and tested for activity with Fraction B+C.

P. pacificus = assay: Dauer formation assay; format: in vivo, Pristionchus pacificus; conditions: synthetic samples; first assayed at 1 μM
Description: Dauer formation assays were performed as described in Ogawa et al., Curr. Biol. 19:67-71 (2009), which is hereby incorporated by reference in its entirety, using heat- or kanamycin-killed E. coli OP50. Synthetic compounds were dissolved in ethanol (0.5 mM, stock solution) and combined with water to make a […] and subsequently added to 3 mL NGM-agar without peptone ([…], 0.3, 0.1 μM final concentrations).

Structure (SMILES): CC(=O)CCC[C@@H](C)O[C@@H]1O[C@@H](C)[C@H](O)C[C@H]1O [ascr#2]
- promotion of dauer entry (C. elegans): individually promote dauer entry
- lowest amount eliciting male attraction (as low as) (C. elegans males): 500 attomol
- male attraction from a distance / chemotaxis towards a point source (C. elegans males): chemotax towards
- dauer larvae that moved away from the release location, normalized to the percent of the positive control response (C. elegans dauer larvae): 40%
- most active amount for attraction in C. elegans [1]: ~1 pmol

Structure (SMILES): C[C@H](CC/C=C/C(=O)Nc1ccc(C(=O)O)cc1)O[C@@H]1O[C@@H](C)[C@H](O)C[C@H]1O [ascr#8]
- promotion of dauer entry (C. elegans): individually promote dauer entry
- preference for areas conditioned by the ascaroside [2]: preferred
- male attraction from a distance / chemotaxis towards a point source (C. elegans males): not active
- dauer larvae that moved away from the release location, normalized to the percent of the positive control response (C. elegans dauer larvae): 50%

Structure (SMILES): C[C@H](CCC(=O)O)O[C@@H]1O[C@@H](C)[C@H](O)C[C@H]1O [ascr#9]
- induction of the eurystomatous mouth form [3]: inactive
- dispersal activity in combination with natural fractions B and C (S. feltiae IJs): restored the original dispersal activity
- dispersal activity when tested alone (S. feltiae IJs): did not have activity by themselves
- preference for areas conditioned by the ascaroside [2]: preferred
- substitution for ascr#2 in the C. elegans dispersal blend (C. elegans dauer larvae): can replace the function of ascr#2
- substitution for ascr#2 in the C. elegans dispersal blend (C. elegans dauer larvae; listed as Ascr#9): able to substitute for its structural analog ascr#2

Structure (SMILES): C[C@H](CC(=O)O)O[C@@H]1O[C@@H](C)[C@H](O)C[C@H]1O [ascr#11]
- dispersal activity in combination with natural fractions B and C (S. feltiae IJs): restored the full activity; also recorded: sufficient to cause dispersal
- dispersal activity when tested alone (S. feltiae IJs): did not have activity by themselves

Structure (SMILES): C[C@H](CCC(=O)O)O[C@@H]1O[C@@H](C)[C@H](O)C[C@@H]1O [part#9, (R)-4-(((2R,3S,5R,6S)-3,5-dihydroxy-6-methyltetrahydro-2H-pyran-2-yl)oxy)pentanoic acid]
- induction of the eurystomatous mouth form [3]: inactive
- dauer induction (P. pacificus): weaker dauer inducation
